# Assay results taken from PubChem BioAssay AID1259407 (Chemical Carcinogenesis Research Information System (CCRIS), 2018).
# The source made the active and inactive calls. No rule for the calls is given here.
# Test system: CCRIS mutagenicity, Ames/micronucleus/aberration tests
# Assay: CCRIS mutagenicity studies
# [1] = Test System: AMES SALMONELLA TYPHIMURIUM, Strain/Indicator: TA100, Metabolic Activation: NONE, Method: STANDARD PLATE
# [2] = Test System: AMES SALMONELLA TYPHIMURIUM, Strain/Indicator: TA98, Metabolic Activation: NONE, Method: STANDARD PLATE
# [3] = Test System: AMES SALMONELLA TYPHIMURIUM, Strain/Indicator: TA100, Metabolic Activation: NONE, Method: PREINCUBATION
smiles,measurement,setting,value
CC(C)c1cccc(C(C)C)c1O,mutagenic call,"End Point: IN VIVO CHROMOSOMAL ABERRATIONS, Test System: PERIPHERAL BLOOD LYMPHOCYTES, Species: HUMAN, Strain/Sex: MALE, FEMALE, Route: IV",inactive; negative
Cc1cc(C)c(CN2C3c4ccccc4-c4ccccc4C32)c(C)c1 (centres undefined),mutagenic call,[1],active; positive
Cc1cccc(C2CO2)c1 (centres undefined),mutagenic call,"Test System: E. COLI, Strain/Indicator: WP2 UVRA, Metabolic Activation: NONE, Method: STANDARD PLATE",active; positive
c1ccc2sc(SN3CCOCC3)nc2c1,mutagenic call,[2],inactive; negative
same,mutagenic call,"Test System: AMES SALMONELLA TYPHIMURIUM, Strain/Indicator: TA98, Metabolic Activation: S-9, Method: STANDARD PLATE",inactive; negative
same,mutagenic call,[1],inactive; negative
same,mutagenic call,"Test System: AMES SALMONELLA TYPHIMURIUM, Strain/Indicator: TA100, Metabolic Activation: S-9, Method: STANDARD PLATE",inactive; negative
CCOc1ccc(N(O)C(C)=O)cc1,mutagenic call,"End Point: IN VITRO MICRONUCLEUS, Test System: RAT KIDNEY FIBROBLAST NRK-49F, Metabolic Activation: NONE",active; positive
same,mutagenic call,"Test System: AMES SALMONELLA TYPHIMURIUM, Strain/Indicator: TA100, Metabolic Activation: HAMSTER, LIVER, S-9, AROCLOR 1254, Method: LIQUID SUSPENSION",active; positive
same,mutagenic call,"Test System: AMES SALMONELLA TYPHIMURIUM, Strain/Indicator: TA100, Metabolic Activation: HAMSTER, LIVER, S-9, KANECHLOR 400 (WITHOUT NADPH GENERATING SYSTEM), Method: PREINCUBATION",active; positive
same,mutagenic call,[3],inactive; negative
same,mutagenic call,"Test System: AMES SALMONELLA TYPHIMURIUM, Strain/Indicator: TA100, Metabolic Activation: RAT, LIVER, S-9, PCB, Method: LIQUID SUSPENSION",active; positive
COCC1CO1 (centres undefined),mutagenic call,"Test System: AMES SALMONELLA TYPHIMURIUM, Strain/Indicator: TA100, Metabolic Activation: HAMSTER, LIVER, S-9, AROCLOR 1254 (10%), Method: PREINCUBATION",active; positive
same,mutagenic call,[3],active; positive
same,mutagenic call,"Test System: AMES SALMONELLA TYPHIMURIUM, Strain/Indicator: TA100, Metabolic Activation: RAT, LIVER, S-9, AROCLOR 1254 (10%), Method: PREINCUBATION",active; positive
same,mutagenic call,"Test System: AMES SALMONELLA TYPHIMURIUM, Strain/Indicator: TA1535, Metabolic Activation: HAMSTER, LIVER, S-9, AROCLOR 1254 (10%), Method: PREINCUBATION",active; positive
same,mutagenic call,"Test System: AMES SALMONELLA TYPHIMURIUM, Strain/Indicator: TA1535, Metabolic Activation: NONE, Method: PREINCUBATION",active; positive
same,mutagenic call,"Test System: AMES SALMONELLA TYPHIMURIUM, Strain/Indicator: TA1535, Metabolic Activation: RAT, LIVER, S-9, AROCLOR 1254 (10%), Method: PREINCUBATION",active; positive
C[C@]12C=CC3=C4CCC(=O)C=C4CC[C@H]3[C@@H]1CC[C@@H]2O,mutagenic call,[2],inactive; negative
same,mutagenic call,"Test System: AMES SALMONELLA TYPHIMURIUM, Strain/Indicator: TA98, Metabolic Activation: RAT, LIVER, S-9, AROCLOR 1254 (5%, 30%), Method: PREINCUBATION",inactive; negative
same,mutagenic call,"Test System: AMES SALMONELLA TYPHIMURIUM, Strain/Indicator: TA98, Metabolic Activation: RAT, LIVER, S-9, AROCLOR 1254, Method: STANDARD PLATE",inactive; negative
same,mutagenic call,"Test System: AMES SALMONELLA TYPHIMURIUM, Strain/Indicator: TA98, Metabolic Activation: RAT, LIVER, S-9, Method: STANDARD PLATE",inactive; negative; toxicity at 3000 ug/plate
same,mutagenic call,[1],inactive; negative
same,mutagenic call,"Test System: AMES SALMONELLA TYPHIMURIUM, Strain/Indicator: TA100, Metabolic Activation: RAT, LIVER, S-9, AROCLOR 1254 (5%, 30%), Method: PREINCUBATION",inactive; negative
same,mutagenic call,"Test System: AMES SALMONELLA TYPHIMURIUM, Strain/Indicator: TA100, Metabolic Activation: RAT, LIVER, S-9, AROCLOR 1254, Method: STANDARD PLATE",inactive; negative
same,mutagenic call,"Test System: AMES SALMONELLA TYPHIMURIUM, Strain/Indicator: TA100, Metabolic Activation: RAT, LIVER, S-9, Method: STANDARD PLATE",inactive; negative
same,mutagenic call,"Test System: AMES SALMONELLA TYPHIMURIUM, Strain/Indicator: TA102, Metabolic Activation: RAT, LIVER, S-9, AROCLOR 1254 (5%, 30%), Method: PREINCUBATION",inactive; negative
same,mutagenic call,"Test System: AMES SALMONELLA TYPHIMURIUM, Strain/Indicator: TA1535, Metabolic Activation: RAT, LIVER, S-9, AROCLOR 1254, Method: STANDARD PLATE",inactive; negative
same,mutagenic call,"Test System: AMES SALMONELLA TYPHIMURIUM, Strain/Indicator: TA1535, Metabolic Activation: RAT, LIVER, S-9, Method: STANDARD PLATE",inactive; negative
same,mutagenic call,"Test System: AMES SALMONELLA TYPHIMURIUM, Strain/Indicator: TA1537, Metabolic Activation: RAT, LIVER, S-9, AROCLOR 1254, Method: STANDARD PLATE",inactive; negative
same,mutagenic call,"Test System: AMES SALMONELLA TYPHIMURIUM, Strain/Indicator: TA1537, Metabolic Activation: RAT, LIVER, S-9, Method: STANDARD PLATE",inactive; negative
same,mutagenic call,"Test System: AMES SALMONELLA TYPHIMURIUM, Strain/Indicator: TA1538, Metabolic Activation: RAT, LIVER, S-9, AROCLOR 1254, Method: STANDARD PLATE",inactive; negative
same,mutagenic call,"Test System: AMES SALMONELLA TYPHIMURIUM, Strain/Indicator: TA1538, Metabolic Activation: RAT, LIVER, S-9, Method: STANDARD PLATE",inactive; negative
same,mutagenic call,"Test System: CHINESE HAMSTER V-79, Strain/Indicator: V-79/6-THIOGUANINE, Metabolic Activation: NONE, Method: STANDARD PLATE",inactive; negative
same,mutagenic call,"Test System: CHINESE HAMSTER V-79, Strain/Indicator: V-79/6-THIOGUANINE, Metabolic Activation: RAT, LIVER, S-9, AROCLOR 1254, Method: STANDARD PLATE",inactive; negative
same,mutagenic call,"Test System: CHO/HGPRT, Strain/Indicator: CHO-K1-BH4, Metabolic Activation: NONE, Method: STANDARD PLATE",inactive; negative
same,mutagenic call,"Test System: CHO/HGPRT, Strain/Indicator: CHO-K1-BH4, Metabolic Activation: RAT, LIVER, S-9, AROCLOR 1254, Method: STANDARD PLATE",inactive; negative
Fc1cccc2ncccc12,mutagenic call,"End Point: In vitro chromosomal aberrations, Test System: Chinese hamster lung fibroblast cells (CHL/IU), Metabolic Activation: Rat, liver, S-9","active; positive, described as marginally clastogenic at non toxic doses. (information d"
same,mutagenic call,"End Point: In vitro micronucleus, Test System: Chinese hamster lung fibroblast cells (CHL/IU), Metabolic Activation: Rat, liver, S-9",active; positive (information derived from a figure)
same,mutagenic call,"Test System: AMES SALMONELLA TYPHIMURIUM, Strain/Indicator: TA100, Metabolic Activation: RAT LIVER S-9, PHENOBARBITAL AND 5,6-BENZOFLAVONE, Method: PREINCUBATION",active; positive
same,mutagenic call,"Test System: AMES SALMONELLA TYPHIMURIUM, Strain/Indicator: TA100, Metabolic Activation: RAT, LIVER, S-9, AROCLOR 1254, Method: PREINCUBATION",active; positive
same,mutagenic call,"Test System: AMES SALMONELLA TYPHIMURIUM, Strain/Indicator: TA100, Metabolic Activation: RAT, LIVER, S-9, PHENOBARBITAL AND 5,6-BENZOFLAVONE, Method: PREINCUBATION",active; positive
same,mutagenic call,"Test System: AMES SALMONELLA TYPHIMURIUM, Strain/Indicator: TA100, Metabolic Activation: RAT, LIVER, S-9, PHENOBARBITAL AND 5,6-NAPHTHOFLAVONE, Method: PREINCUBATION",active; positive
same,mutagenic call,"Test System: UDS RODENT HEPATOCYTES, Strain/Indicator: THY INCORP (NON-S-PHASE), Metabolic Activation: NONE, Method: AUTORADIOGRAPHY",active; positive
